The values that follow are results of earlier work, collected in patent publication US10485825B2, “Prevention of pregnancy complications by noble gas administration” (NOBLIS THERAPEUTICS, INC., priority 2016, dated 2019).

In this series the test system is Tregs. To be noted: CCL20 stimulation; blocked by neutralizing anti-CCL20 antibody.

On to “CCL20: CCL20 protein used to stimulate Treg migration in a cited study”, for which the “increase in migration of CCL20-stimulated Tregs” value is listed as 3.21 fold.
